Measurements: US20250270209A1 (INTERLINE THERAPEUTICS, INC., priority 2022, published 2025)

Experiments:
LRRK2 wild type enzyme = LRRK2 wild type enzyme (Homo sapiens, UniProt Q5S007); assay: Biochemical Assay: LRRK2 TR-FRET (LanthaScreen) kinase assay with LRRKtide substrate; conditions: LRRK2 Inhibition, Table 8
Summary of the method: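 Human wild-type LRRK2 (3 nM) preincubated 15 min with compound (11-point, 3-fold, top 10 μM), then reacted 120 min at 23 °C with 400 nM LRRKtide and 25 μM ATP, pH 8.0. Stopped with EDTA; Tb-anti-pLRRKtide TR-FRET read after 30 min.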

[1] = target: T1, wild type LRRK2 overexpressed in recombinant HEK-293T cells (Homo sapiens, UniProt Q5S007); assay: pS935 LRRK2 Cell Assay (HTRF, phospho-LRRK2 Ser935); format: cell-based; conditions: LRRK2 Inhibition, Table 8, 2 hours compound incubation
T1 construct: host or cells: HEK293T (transient transfection with pCMV-LRRK2 WT plasmid)
T1 sequence (Q5S007 whole entry): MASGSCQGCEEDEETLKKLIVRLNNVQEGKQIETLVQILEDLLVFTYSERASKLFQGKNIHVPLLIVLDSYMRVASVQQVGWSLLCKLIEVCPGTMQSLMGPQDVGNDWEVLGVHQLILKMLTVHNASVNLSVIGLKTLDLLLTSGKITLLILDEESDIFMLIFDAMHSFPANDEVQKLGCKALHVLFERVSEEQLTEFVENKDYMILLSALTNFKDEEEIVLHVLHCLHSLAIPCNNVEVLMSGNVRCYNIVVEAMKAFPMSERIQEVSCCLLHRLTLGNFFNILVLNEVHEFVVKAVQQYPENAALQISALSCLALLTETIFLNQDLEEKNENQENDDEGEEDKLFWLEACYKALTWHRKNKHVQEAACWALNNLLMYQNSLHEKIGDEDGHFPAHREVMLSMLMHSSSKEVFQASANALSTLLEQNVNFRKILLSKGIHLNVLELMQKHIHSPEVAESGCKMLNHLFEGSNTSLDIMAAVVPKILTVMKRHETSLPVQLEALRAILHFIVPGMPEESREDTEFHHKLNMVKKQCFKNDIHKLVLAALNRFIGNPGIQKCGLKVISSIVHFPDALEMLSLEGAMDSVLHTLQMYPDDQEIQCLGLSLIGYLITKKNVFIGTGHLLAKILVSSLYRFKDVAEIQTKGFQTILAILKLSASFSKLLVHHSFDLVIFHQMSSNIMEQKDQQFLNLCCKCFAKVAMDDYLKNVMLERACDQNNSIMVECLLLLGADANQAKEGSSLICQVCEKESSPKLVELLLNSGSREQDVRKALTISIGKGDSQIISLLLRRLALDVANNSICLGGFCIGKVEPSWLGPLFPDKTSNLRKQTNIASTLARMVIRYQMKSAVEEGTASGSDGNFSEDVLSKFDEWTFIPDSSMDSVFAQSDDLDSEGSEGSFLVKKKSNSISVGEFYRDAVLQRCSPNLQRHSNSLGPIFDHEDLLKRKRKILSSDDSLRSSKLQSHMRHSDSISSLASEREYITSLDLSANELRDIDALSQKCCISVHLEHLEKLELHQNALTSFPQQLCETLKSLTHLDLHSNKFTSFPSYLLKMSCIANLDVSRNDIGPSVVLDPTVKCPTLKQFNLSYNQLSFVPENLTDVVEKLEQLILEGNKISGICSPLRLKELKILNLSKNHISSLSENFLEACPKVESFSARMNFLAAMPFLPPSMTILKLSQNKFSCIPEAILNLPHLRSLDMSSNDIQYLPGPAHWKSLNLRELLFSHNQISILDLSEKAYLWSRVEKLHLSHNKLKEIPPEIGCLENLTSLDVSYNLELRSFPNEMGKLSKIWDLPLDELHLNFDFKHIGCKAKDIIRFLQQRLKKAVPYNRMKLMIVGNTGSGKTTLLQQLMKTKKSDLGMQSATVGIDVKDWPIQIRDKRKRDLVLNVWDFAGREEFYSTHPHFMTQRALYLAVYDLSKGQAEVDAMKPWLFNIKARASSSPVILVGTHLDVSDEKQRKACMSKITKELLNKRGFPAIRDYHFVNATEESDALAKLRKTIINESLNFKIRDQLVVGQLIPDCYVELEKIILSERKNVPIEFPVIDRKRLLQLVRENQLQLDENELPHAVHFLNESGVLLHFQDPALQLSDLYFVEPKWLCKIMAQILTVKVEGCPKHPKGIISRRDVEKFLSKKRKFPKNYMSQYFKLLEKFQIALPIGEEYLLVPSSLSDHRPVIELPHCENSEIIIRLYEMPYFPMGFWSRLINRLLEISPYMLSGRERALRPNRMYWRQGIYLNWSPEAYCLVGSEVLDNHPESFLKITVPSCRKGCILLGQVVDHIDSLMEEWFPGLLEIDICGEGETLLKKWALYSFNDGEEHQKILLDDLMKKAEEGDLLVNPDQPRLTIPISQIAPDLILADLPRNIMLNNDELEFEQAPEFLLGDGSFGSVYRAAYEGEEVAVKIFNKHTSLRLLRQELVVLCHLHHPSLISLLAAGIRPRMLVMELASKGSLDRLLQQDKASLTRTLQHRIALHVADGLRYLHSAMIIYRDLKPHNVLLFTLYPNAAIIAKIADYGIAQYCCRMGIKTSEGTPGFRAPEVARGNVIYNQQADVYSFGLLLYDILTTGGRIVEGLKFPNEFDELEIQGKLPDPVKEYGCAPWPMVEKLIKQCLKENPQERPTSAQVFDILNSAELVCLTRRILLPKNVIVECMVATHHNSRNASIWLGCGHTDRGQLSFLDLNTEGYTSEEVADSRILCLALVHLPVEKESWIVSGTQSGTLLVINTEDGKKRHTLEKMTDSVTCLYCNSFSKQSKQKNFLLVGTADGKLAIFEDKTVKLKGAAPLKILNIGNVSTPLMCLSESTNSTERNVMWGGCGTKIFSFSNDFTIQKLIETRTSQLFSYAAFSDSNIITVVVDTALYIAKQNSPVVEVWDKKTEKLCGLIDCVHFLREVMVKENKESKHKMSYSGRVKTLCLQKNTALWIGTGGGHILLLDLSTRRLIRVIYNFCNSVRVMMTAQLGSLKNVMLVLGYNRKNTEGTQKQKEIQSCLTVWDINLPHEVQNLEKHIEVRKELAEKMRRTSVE
Summary of the method: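 HEK-293T cells transiently transfected with wild-type LRRK2 for 24 h, plated overnight, then treated 2 h at 37° C with compound (top 10 μM, 3-fold, 9 doses, duplicates, 0.2% DMSO). Lysates probed overnight at 23° C by sandwich HTRF for pSer935; 665/615 nm ratio read.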

LRRK2 wild type enzyme, sequence (Q5S007 whole entry): as above

SMILES	IC50 (LRRK2 wild type enzyme) [nM]	IC50 [1] [nM]
CC(C)Oc1ccc(NC(=O)Cc2nc3cnc4ccc(C#N)cc4c3n2[C@@H]2CCO[C@H](C)C2)cn1 [Compound 273, N-(6-isopropoxy-3-pyridyl){3-[(2R,4R)-2-methyltetrahydro-2H-pyran-4-yl]-12-cyano-3,5,8-triazatricyclo[7.4.0.0^2,6]trideca-1,4,6,8,10,12-hexaen-4-yl}acetamide]	0.478	5.59
CCOc1ccc(NC(=O)Cc2nc3cnc4ccc(C#N)cc4c3n2[C@@H]2CCO[C@H](C)C2)cn1 [Compound 274, N-(6-ethoxy-3-pyridyl){3-[(2R,4R)-2-methyltetrahydro-2H-pyran-4-yl]-12-cyano-3,5,8-triazatricyclo[7.4.0.0^2,6]trideca-1,4,6,8,10,12-hexaen-4-yl}acetamide]	0.445	7.97
CCOc1ncccc1NC(=O)Cc1nc2cnc3ccc(C#N)cc3c2n1[C@@H]1CCO[C@H](C)C1 [Compound 275, N-(2-ethoxy-3-pyridyl){3-[(2R,4R)-2-methyltetrahydro-2H-pyran-4-yl]-12-cyano-3,5,8-triazatricyclo[7.4.0.0^2,6]trideca-1,4,6,8,10,12-hexaen-4-yl}acetamide]	0.478	2.41
COCC1(NC(=O)Cc2nc3cnc4ccc(C#N)cc4c3n2[C@@H]2CCO[C@H](C)C2)CC1 [Compound 276]	0.922	86
C[C@@H]1C[C@H](n2c(CC(=O)N[C@@H]3C[C@H]3F)nc3cnc4ccc(C#N)cc4c32)CCO1 [Compound 277, N-[(1R,2R)-2-fluorocyclopropyl]{3-[(2R,4R)-2-methyltetrahydro-2H-pyran-4-yl]-12-cyano-3,5,8-triazatricyclo[7.4.0.0^2,6]trideca-1(13),2(6),4,7,9,11-hexaen-4-yl}acetamide]	0.828	52.2
COc1ncc(NC(=O)Cc2nc3cnc4ccc(C#N)cc4c3n2[C@@H]2CCO[C@H](C)C2)c(C2CC2)n1 [Compound 278, N-(4-cyclopropyl-2-methoxy-5-pyrimidinyl){3-[(2R,4R)-2-methyltetrahydro-2H-pyran-4-yl]-12-cyano-3,5,8-triazatricyclo[7.4.0.0^2,6]trideca-1,4,6,8,10,12-hexaen-4-yl}acetamide]	0.418	2
Cc1noc(CNC(=O)Cc2nc3cnc4ccc(C#N)cc4c3n2[C@@H]2CCO[C@H](C)C2)n1 [Compound 279, N-[(3-methyl-1,2,4-oxadiazol-5-yl)methyl]{3-[(2R,4R)-2-methyltetrahydro-2H-pyran-4-yl]-12-cyano-3,5,8-triazatricyclo[7.4.0.0^2,6]trideca-1(9),2(6),4,7,10,12-hexaen-4-yl}acetamide]	0.776	86.3
C[C@@H]1C[C@H](n2c(CC(=O)Nc3ccn(C)c(=O)c3)nc3cnc4ccc(C#N)cc4c32)CCO1 [Compound 280, N-(1-methyl-2-oxo-1,2-dihydro-4-pyridyl){3-[(2R,4R)-2-methyltetrahydro-2H-pyran-4-yl]-12-cyano-3,5,8-triazatricyclo[7.4.0.0^2,6]trideca-1,4,6,8,10,12-hexaen-4-yl}acetamide]	0.373	495
C[C@@H]1C[C@H](n2c(CC(=O)Nc3ccc(=O)n(C)c3)nc3cnc4ccc(C#N)cc4c32)CCO1 [Compound 281, N-(1-methyl-6-oxo-1,6-dihydro-3-pyridyl){3-[(2R,4R)-2-methyltetrahydro-2H-pyran-4-yl]-12-cyano-3,5,8-triazatricyclo[7.4.0.0^2,6]trideca-1,4,6,8,10,12-hexaen-4-yl}acetamide]	0.394	336
C[C@@H]1C[C@H](n2c(CC(=O)NC3(C#N)CC3)nc3cnc4ccc(C#N)cc4c32)CCO1 [Compound 282, N-1-cyanocyclopropyl{3-[(2R,4R)-2-methyltetrahydro-2H-pyran-4-yl]-12-cyano-3,5,8-triazatricyclo[7.4.0.0^2,6]trideca-1,4,6,8,10,12-hexaen-4-yl}acetamide]	0.619	188
C[C@@H]1C[C@H](n2c(CC(=O)Nc3cccnc3CO)nc3cnc4ccc(C#N)cc4c32)CCO1 [Compound 283, N-[2-(hydroxymethyl)-3-pyridyl]{3-[(2R,4R)-2-methyltetrahydro-2H-pyran-4-yl]-12-cyano-3,5,8-triazatricyclo[7.4.0.0^2,6]trideca-1,4,6,8,10,12-hexaen-4-yl}acetamide]	0.572	27.3
C[C@@H]1C[C@H](n2c(CC(=O)Nc3cncc(C#N)c3)nc3cnc4ccc(C#N)cc4c32)CCO1 [Compound 284, N-(5-cyano-3-pyridyl){3-[(2R,4R)-2-methyltetrahydro-2H-pyran-4-yl]-12-cyano-3,5,8-triazatricyclo[7.4.0.0^2,6]trideca-1,4,6,8,10,12-hexaen-4-yl}acetamide]	0.538	20
C[C@@H]1C[C@H](n2c(CC(=O)Nc3cccnc3C(F)(F)F)nc3cnc4ccc(C#N)cc4c32)CCO1 [Compound 285, N-[2-(trifluoromethyl)-3-pyridyl]{3-[(2R,4R)-2-methyltetrahydro-2H-pyran-4-yl]-12-cyano-3,5,8-triazatricyclo[7.4.0.0^2,6]trideca-1,4,6,8,10,12-hexaen-4-yl}acetamide]	0.68	18.2
C[C@@H]1C[C@H](n2c(CC(=O)NC3(CO)CC3)nc3cnc4ccc(C#N)cc4c32)CCO1 [Compound 286, N-1-(hydroxymethyl)cyclopropyl{3-[(2R,4R)-2-methyltetrahydro-2H-pyran-4-yl]-12-cyano-3,5,8-triazatricyclo[7.4.0.0^2,6]trideca-1,4,6,8,10,12-hexaen-4-yl}acetamide]	1.45	907
C[C@@H]1C[C@H](n2c(CC(=O)NC3(C(F)(F)F)CC3)nc3cnc4ccc(C#N)cc4c32)CCO1 [Compound 287, N-1-(trifluoromethyl)cyclopropyl{3-[(2R,4R)-2-methyltetrahydro-2H-pyran-4-yl]-12-cyano-3,5,8-triazatricyclo[7.4.0.0^2,6]trideca-1,4,6,8,10,12-hexaen-4-yl}acetamide]	1.61	118
C[C@@H]1C[C@H](n2c(CC(=O)NC3CC3(F)F)nc3cnc4ccc(C#N)cc4c32)CCO1 (stereo partly drawn) [Compound 288, N-2,2-difluorocyclopropyl{3-[(2R,4R)-2-methyltetrahydro-2H-pyran-4-yl]-12-cyano-3,5,8-triazatricyclo[7.4.0.0^2,6]trideca-1,4,6,8,10,12-hexaen-4-yl}acetamide]	0.642	39
C[C@@H]1C[C@H](n2c(CC(=O)N[C@H]3C[C@H]3F)nc3cnc4ccc(C#N)cc4c32)CCO1 [Compound 289, N-[(1S,2R)-2-fluorocyclopropyl]{3-[(2R,4R)-2-methyltetrahydro-2H-pyran-4-yl]-12-cyano-3,5,8-triazatricyclo[7.4.0.0^2,6]trideca-1,4,6,8,10,12-hexaen-4-yl}acetamide]	0.692	54.5
C[C@@H]1C[C@H](n2c(CC(=O)N[C@@H]3C[C@@H]3F)nc3cnc4ccc(C#N)cc4c32)CCO1 [Compound 290, N-[(1R,2S)-2-fluorocyclopropyl]{3-[(2R,4R)-2-methyltetrahydro-2H-pyran-4-yl]-12-cyano-3,5,8-triazatricyclo[7.4.0.0^2,6]trideca-1,4,6,8,10,12-hexaen-4-yl}acetamide]	0.567	33.4
COc1ncc(NC(=O)Cc2nc3cnc4ccc(C#N)cc4c3n2[C@@H]2CCO[C@H](C)C2)cn1 [Compound 291, N-(2-methoxy-5-pyrimidinyl){3-[(2R,4R)-2-methyltetrahydro-2H-pyran-4-yl]-12-cyano-3,5,8-triazatricyclo[7.4.0.0^2,6]trideca-1,4,6,8,10,12-hexaen-4-yl}acetamide]	0.527	18
Cc1ccncc1NC(=O)Cc1nc2cnc3ccc(C#N)cc3c2n1[C@@H]1CCO[C@H](C)C1 [Compound 292, N-(4-methyl-3-pyridyl){3-[(2R,4R)-2-methyltetrahydro-2H-pyran-4-yl]-12-cyano-3,5,8-triazatricyclo[7.4.0.0^2,6]trideca-1,4,6,8,10,12-hexaen-4-yl}acetamide]	0.473	8.23
C[C@@H]1C[C@H](n2c(CC(=O)Nc3ccc(OC(F)F)nc3)nc3cnc4ccc(C#N)cc4c32)CCO1 [Compound 293, N-(6-difluoromethoxy-3-pyridyl){3-[(2R,4R)-2-methyltetrahydro-2H-pyran-4-yl]-12-cyano-3,5,8-triazatricyclo[7.4.0.0^2,6]trideca-1,4,6,8,10,12-hexaen-4-yl}acetamide]	0.514	9.81
C[C@@H]1C[C@H](n2c(CC(=O)NC3(CF)CC3)nc3cnc4ccc(C#N)cc4c32)CCO1 [Compound 294, N-1-(fluoromethyl)cyclopropyl{3-[(2R,4R)-2-methyltetrahydro-2H-pyran-4-yl]-12-cyano-3,5,8-triazatricyclo[7.4.0.0^2,6]trideca-1,4,6,8,10,12-hexaen-4-yl}acetamide]	1.48	132
COc1ncc(NC(=O)Cc2nc3cnc4ccc(C#N)cc4c3n2[C@@H]2CCO[C@H](C)C2)c(OC)n1 [Compound 295, N-(2,4-dimethoxy-5-pyrimidinyl){3-[(2R,4R)-2-methyltetrahydro-2H-pyran-4-yl]-12-cyano-3,5,8-triazatricyclo[7.4.0.0^2,6]trideca-1,4,6,8,10,12-hexaen-4-yl}acetamide]	0.455	4.67
